According to PubChem BioAssay (NCI):
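Following 48 hours of exposure in 96-well plates, responses at five concentrations were used to interpolate endpoints linearly. Here, GI50 denotes the concentration required for 50% inhibition of growth. TGI: total growth inhibition.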

Experiments:
Assay in all cases: NCI-60 cell line screen, 48 h
SK-MEL-5 melanoma = system: SK-MEL-5 melanoma
RXF 393 renal = system: RXF 393 renal
OVCAR-8 ovarian = system: OVCAR-8 ovarian
LOX IMVI melanoma = system: LOX IMVI melanoma
CAKI-1 renal = system: CAKI-1 renal
BT-549 breast = system: BT-549 breast
SK-MEL-28 melanoma = system: SK-MEL-28 melanoma
K-562 leukemia = system: K-562 leukemia
SW-620 colon = system: SW-620 colon
MDA-MB-435 = system: MDA-MB-435
HOP-92 NSCLC = system: HOP-92 NSCLC
OVCAR-3 ovarian = system: OVCAR-3 ovarian
MCF7 breast = system: MCF7 breast
SF-268 CNS = system: SF-268 CNS
SR leukemia = system: SR leukemia
A498 renal = system: A498 renal
UO-31 renal = system: UO-31 renal
OVCAR-4 ovarian = system: OVCAR-4 ovarian
HCT-116 colon = system: HCT-116 colon
RPMI-8226 leukemia = system: RPMI-8226 leukemia
NCI-H23 lung = system: NCI-H23 lung
ACHN renal = system: ACHN renal
SF-539 CNS = system: SF-539 CNS
EKVX NSCLC = system: EKVX NSCLC
NCI/ADR-RES ovarian = system: NCI/ADR-RES ovarian
MDA-MB-231 breast = system: MDA-MB-231 breast
CCRF-CEM leukemia = system: CCRF-CEM leukemia
HCC-2998 colon = system: HCC-2998 colon
SK-OV-3 ovarian = system: SK-OV-3 ovarian
NCI-H226 lung = system: NCI-H226 lung
U251 CNS = system: U251 CNS
HOP-62 NSCLC = system: HOP-62 NSCLC
NCI-H460 lung = system: NCI-H460 lung
UACC-62 melanoma = system: UACC-62 melanoma
NCI-H522 lung = system: NCI-H522 lung
UACC-257 melanoma = system: UACC-257 melanoma
DU-145 prostate = system: DU-145 prostate
TK-10 renal = system: TK-10 renal
OVCAR-5 ovarian = system: OVCAR-5 ovarian
PC-3 prostate = system: PC-3 prostate
KM12 colon = system: KM12 colon
HS 578T breast = system: HS 578T breast
SF-295 CNS = system: SF-295 CNS
M14 melanoma = system: M14 melanoma
COLO 205 colon = system: COLO 205 colon
IGROV1 ovarian = system: IGROV1 ovarian
SNB-19 CNS = system: SNB-19 CNS
MOLT-4 leukemia = system: MOLT-4 leukemia
SN12C renal = system: SN12C renal
A549 NSCLC = system: A549 NSCLC
786-0 renal = system: 786-0 renal
HL-60(TB) leukemia = system: HL-60(TB) leukemia
HCT-15 colon = system: HCT-15 colon
SK-MEL-2 melanoma = system: SK-MEL-2 melanoma

Compound `O[C@H]1C=C2[C@H](C[C@@H]1O)CN1C[C@H]2c2cc3c(cc21)OCO3` has a GI50 (SK-MEL-5 melanoma) of 29.4 µM, a TGI (SK-MEL-5 melanoma) of over 100 µM and a GI50 (RXF 393 renal) of 50.3 µM. The TGI (RXF 393 renal) was over 100 µM, the GI50 (OVCAR-8 ovarian) was 30.2 µM and the TGI (OVCAR-8 ovarian) was over 100 µM. For the same compound, the GI50 (LOX IMVI melanoma) was 18.7 µM, the TGI (LOX IMVI melanoma) was 55.5 µM and the GI50 (CAKI-1 renal) was 23.5 µM. It also gave a TGI (CAKI-1 renal) of 61.1 µM, a GI50 (BT-549 breast) of 37.8 µM and a TGI (BT-549 breast) of over 100 µM. The GI50 (SK-MEL-28 melanoma) was 19 µM, the TGI (SK-MEL-28 melanoma) was 87.7 µM and the GI50 (K-562 leukemia) was 49.9 µM. It also gave a TGI (K-562 leukemia) of over 100 µM, a GI50 (SW-620 colon) of 49.1 µM and a TGI (SW-620 colon) of over 100 µM. For the same compound, the GI50 (MDA-MB-435) was 20.1 µM, the TGI (MDA-MB-435) was 90.4 µM and the GI50 (HOP-92 NSCLC) was 83.1 µM. The TGI (HOP-92 NSCLC) was over 100 µM, the GI50 (OVCAR-3 ovarian) was 42.1 µM and the TGI (OVCAR-3 ovarian) was 84.6 µM. It also gave a GI50 (MCF7 breast) of 28.8 µM, a TGI (MCF7 breast) of over 100 µM and a GI50 (SF-268 CNS) of 25.4 µM. The TGI (SF-268 CNS) was 86.5 µM, the GI50 (SR leukemia) was 41 µM and the TGI (SR leukemia) was over 100 µM. It also gave a GI50 (A498 renal) of 81.8 µM, a TGI (A498 renal) of over 100 µM and a GI50 (UO-31 renal) of 61.2 µM. The TGI (UO-31 renal) was over 100 µM, the GI50 (OVCAR-4 ovarian) was 32.7 µM and the TGI (OVCAR-4 ovarian) was 73 µM. For the same compound, the GI50 (HCT-116 colon) was 21.6 µM, the TGI (HCT-116 colon) was over 100 µM and the GI50 (RPMI-8226 leukemia) was 35.8 µM. The TGI (RPMI-8226 leukemia) was over 100 µM, the GI50 (NCI-H23 lung) was 29.3 µM and the TGI (NCI-H23 lung) was 96.6 µM. It also gave a GI50 (ACHN renal) of 8.92 µM, a TGI (ACHN renal) of 36.3 µM and a GI50 (SF-539 CNS) of 22.4 µM. For the same compound, the TGI (SF-539 CNS) was 80.2 µM, the GI50 (EKVX NSCLC) was 39.6 µM and the TGI (EKVX NSCLC) was over 100 µM. The GI50 (NCI/ADR-RES ovarian) was 70.5 µM, the TGI (NCI/ADR-RES ovarian) was over 100 µM and the GI50 (MDA-MB-231 breast) was 33 µM. The TGI (MDA-MB-231 breast) was over 100 µM, the GI50 (CCRF-CEM leukemia) was over 100 µM and the TGI (CCRF-CEM leukemia) was over 100 µM. The GI50 (HCC-2998 colon) was 20.4 µM, the TGI (HCC-2998 colon) was 56 µM and the GI50 (SK-OV-3 ovarian) was 6.15 µM. For the same compound, the TGI (SK-OV-3 ovarian) was 51.1 µM, the GI50 (NCI-H226 lung) was 22.1 µM and the TGI (NCI-H226 lung) was 70.3 µM. It also gave a GI50 (U251 CNS) of 27.6 µM, a TGI (U251 CNS) of 94.1 µM and a GI50 (HOP-62 NSCLC) of 30.5 µM. The TGI (HOP-62 NSCLC) was over 100 µM, the GI50 (NCI-H460 lung) was 21.7 µM and the TGI (NCI-H460 lung) was over 100 µM. It also gave a GI50 (UACC-62 melanoma) of 22.1 µM, a TGI (UACC-62 melanoma) of 96.2 µM and a GI50 (NCI-H522 lung) of 94.5 µM. For the same compound, the TGI (NCI-H522 lung) was over 100 µM, the GI50 (UACC-257 melanoma) was 41.6 µM and the TGI (UACC-257 melanoma) was over 100 µM. The GI50 (DU-145 prostate) was 19 µM, the TGI (DU-145 prostate) was over 100 µM and the GI50 (TK-10 renal) was 20.3 µM. It also gave a TGI (TK-10 renal) of 76.6 µM, a GI50 (OVCAR-5 ovarian) of 30.2 µM and a TGI (OVCAR-5 ovarian) of over 100 µM. For the same compound, the GI50 (PC-3 prostate) was 49.1 µM, the TGI (PC-3 prostate) was over 100 µM and the GI50 (KM12 colon) was 23.4 µM. It also gave a TGI (KM12 colon) of over 100 µM, a GI50 (HS 578T breast) of 79.9 µM and a TGI (HS 578T breast) of over 100 µM. It also gave a GI50 (SF-295 CNS) of 15.1 µM, a TGI (SF-295 CNS) of 67.2 µM and a GI50 (M14 melanoma) of 24.9 µM. It also gave a TGI (M14 melanoma) of over 100 µM, a GI50 (COLO 205 colon) of 21.4 µM and a TGI (COLO 205 colon) of over 100 µM. It also gave a GI50 (IGROV1 ovarian) of 62 µM, a TGI (IGROV1 ovarian) of over 100 µM and a GI50 (SNB-19 CNS) of 24.9 µM. It also gave a TGI (SNB-19 CNS) of over 100 µM, a GI50 (MOLT-4 leukemia) of over 100 µM and a TGI (MOLT-4 leukemia) of over 100 µM. It also gave a GI50 (SN12C renal) of 18 µM, a TGI (SN12C renal) of 58.9 µM and a GI50 (A549 NSCLC) of 28.2 µM. The TGI (A549 NSCLC) was 88.8 µM, the GI50 (786-0 renal) was 25.5 µM and the TGI (786-0 renal) was over 100 µM. The GI50 (HL-60(TB) leukemia) was 23.3 µM, the TGI (HL-60(TB) leukemia) was 87.5 µM and the GI50 (HCT-15 colon) was 30.1 µM. For the same compound, the TGI (HCT-15 colon) was over 100 µM, the GI50 (SK-MEL-2 melanoma) was 99.5 µM and the TGI (SK-MEL-2 melanoma) was over 100 µM.
